Experiment [1] deals with HeLa cells. The experiment in a line: Azide metabolic labeling of HeLa cells, detected with DBCO-FAM in a fluorescent plate reader. Format: cell-based. Conditions: AzNAM 25-125 μM for 20 hours, then DBCO-FAM 10 μM for 1 hour, 96-well plate reader (FIG. 1). On the procedure: Initially, cells are cultured in a suitable culture vessel such that their level of confluency at the time of addition of the azide-modified sugar AzNAM is not more than 80%.
In particular, HeLa cells were plated in 6-well plates (2.5×10^4 cells/well) and incubated for 48 hours in DMEM-10% FBS medium in a standard 5% CO2 atmosphere. Medium from each well was removed, and each well was washed with 2 ml of phosphate buffered saline (PBS), and fresh DMEM-FBS (1 ml) added. Subsequently, varying amounts of AzNAM (solubilized in DMSO) were added to the wells in small (10 μl) volumes to produce the desired final concentrations in the range 25-125 μM. After an additional 20 hours incubation, the medium in each well was removed, and the wells were washed with 2 ml of PBS, followed by addition of 1 ml of PBS. Then, a fluorescent bio-orthogonally azide-reactive reagent DBCO-FAM (Broadpharm) was directly added to each well to produce a final concentration of 10 μM.
Plates with added DBCO-FAM were protected from bright light and incubated for 1 hour at room temperature. Supernatants in each well were then removed, and each well was washed twice with 2 ml of PBS. […] After pelleting and washing in PBS, cells were resuspended in 150 μl of PBS and counted. Defined numbers in 50 μl volumes in a 96-well Blackwell plate (Corning) were assayed for fluorescence in a fluorescent plate reader (Tecan).

The subject of experiment [2] is HeLa cells. Nature of the experiment: Azide metabolic labeling of HeLa cells, detected with DBCO-FAM by flow cytometry. To be noted: AzNAM 125 μM for 20 hours, versus cells receiving no azide-modified sugar (FIG. 2). Format: cell-based. On the procedure: In separate trials, HeLa cells were added to wells of a 12-well plate at 10,000 cells/well, and cultured for 72 hours under normal conditions. The wells were then washed with 1 ml of PBS, and 0.5 ml of DMEM-10% FBS was added. AzNAM was then added to a final concentration of 125 μM, with cells receiving no azide-modified sugar as controls. After 20 hours, cells were harvested with CellStripper (250 μl/well), washed with PBS, and subjected to flow analysis.
(In flow cytometry, cells or beads pass a laser one at a time.)

In the case of azido-N-acetylmannosamine [AzNAM], the “cell-associated fluorescence after reaction with DBCO-FAM” value in the experiment with HeLa cells [1] was “cell-associated fluorescence increased as a function of the levels of AzNAM”. The “flow cytometry peak shift after reaction with DBCO-FAM” value in the experiment on HeLa cells [2] is “marked and well-demarcated peak shifts were observed”.

The record behind these values is patent publication US20230406839A1, “Bifunctional Compounds And Methods Of Using The Same” (The General Hospital Corporation, priority 2020, published 2023).
